# Measurements: patent US9610350B2, “Broad spectrum preservation blends” (Arch Personal Care Products, L.P., priority 2009, dated 2017)
# How the values were obtained:
# Type in all cases: cell-based
# [1] = tested on: mixed Klebsiella pneumoniae (ATCC 4352) and Enterobacter gergoviae (ATCC 33028); test: CTFA-type challenge test, mixed K. pneumoniae + E. gergoviae inoculum; details: Make-up Remover at pH 8.1 with 0.83% Benzyl Alcohol
# From the text: (§1) CTFA Challenge Test Procedure: A challenge protocol similar to the CTFA method was followed to assess efficacy against a broad spectrum of microorganisms. The five separate inocula were: Staphylococcus aureus (ATCC 6538), mixed Pseudomonas aeruginosa (ATCC 9027) and Burkholderia cepacia (ATCC 25416), mixed Klebsiella pneumoniae (ATCC 4352) and Enterobacter gergoviae (ATCC 33028), Candida albicans (ATCC 10231), and a mixture of molds: Aspergillus niger (ATCC 16404) and 2 Penicillium sp. isolated from cosmetic products. Samples (35 grams each) were inoculated with approximately 2,000,000 bacteria per gram or 100,000 yeast cells or mold spores per gram. Individual challenges were prepared from overnight slants of bacteria and yeast cultures and from heavily sporulating mold cultures, 7 to 10 days old. All samples were plated quantitatively for viable organisms after 24 hours and weekly for up to 4 weeks. Samples inoculated with mold spores were also plated after 48 hours. Samples were re-challenged after four weeks (or sooner where appropriate) and the same sampling regime followed.
# (§2) Recommended “Pass” Criteria: CTFA recommends at least a 99.9% reduction of vegetative bacteria and at least a 90% reduction of yeasts and molds within 7 days following each challenge with no increase in count thereafter.
# (§3) The preservative concentrates were added to these formulations to give a final concentration of 1%. […]
# [2] = tested on: mixed Klebsiella pneumoniae (ATCC 4352) and Enterobacter gergoviae (ATCC 33028); test: as above; details: Make-up Remover at pH 8.1 with 0.83% Benzyl Alcohol; Challenge #2; 48 Hours
# [3] = tested on: Staphylococcus aureus (ATCC 6538); test: CTFA-type challenge test, S. aureus inoculum; details: Make-up Remover at pH 8.1 with 0.83% Benzyl Alcohol
# [4] = tested on: mixture of molds: Aspergillus niger (ATCC 16404) and 2 Penicillium sp.; test: CTFA-type challenge test, mixed mold inoculum; details: for Colony Forming Units per Gram (CFU/g), Mixed Molds: Make-up Remover at pH 8.1 with 0.83% Benzyl Alcohol
# From the text: as §1, §2, §3
# To determine if the unexpected activity of ECT 4 at high pH (8.1) can be attributed solely to the activity of benzyl alcohol the high pH make-up remover was preserved with 1% ECT4 and with 0.83% benzyl alcohol (equivalent amount found in 1% ECT4).
# [5] = tested on: mixed Pseudomonas aeruginosa (ATCC 9027) and Burkholderia cepacia (ATCC 25416); test: CTFA-type challenge test, mixed P. aeruginosa + B. cepacia inoculum; details: Make-up Remover at pH 8.1 with 0.83% Benzyl Alcohol
# From the text: as §1, §2, §3
# [6] = tested on: Candida albicans (ATCC 10231); test: CTFA-type challenge test, C. albicans inoculum; details: Make-up Remover at pH 8.1 with 0.83% Benzyl Alcohol
# [7] = tested on: mixed Pseudomonas aeruginosa (ATCC 9027) and Burkholderia cepacia (ATCC 25416); test: CTFA-type challenge test, mixed P. aeruginosa + B. cepacia inoculum; details: Make-up Remover at pH 8.1 with 0.83% Benzyl Alcohol; Challenge #2; 48 Hours
# [8] = High pH Make-up Remover (pH 8.1), 0.83% benzyl alcohol
structure (smiles),measurement,setting,value
OCc1ccccc1 [benzyl alcohol],"Colony Forming Units per Gram (CFU/g), K. pneumoniae + E. gergoviae","[1]; Challenge #1, 7 Days",<10 CFU/g
same,"Colony Forming Units per Gram (CFU/g), K. pneumoniae + E. gergoviae","[1]; Challenge #1, 14 Days",<10 CFU/g
same,"Colony Forming Units per Gram (CFU/g), K. pneumoniae + E. gergoviae","[1]; Challenge #1, 21 Days",<10 CFU/g
same,"Colony Forming Units per Gram (CFU/g), K. pneumoniae + E. gergoviae","[1]; Challenge #1, 24 Hours",<10 CFU/g
same,"Colony Forming Units per Gram (CFU/g), K. pneumoniae + E. gergoviae","[1]; Challenge #1, 28 Days",<10 CFU/g
same,"Colony Forming Units per Gram (CFU/g), K. pneumoniae + E. gergoviae","[1]; Challenge #2, 7 Days",<10 CFU/g
same,"Colony Forming Units per Gram (CFU/g), K. pneumoniae + E. gergoviae","[1]; Challenge #2, 14 Days",<10 CFU/g
same,"Colony Forming Units per Gram (CFU/g), K. pneumoniae + E. gergoviae","[1]; Challenge #2, 21 Days",<10 CFU/g
same,"Colony Forming Units per Gram (CFU/g), K. pneumoniae + E. gergoviae","[1]; Challenge #2, 28 Days",<10 CFU/g
same,"Colony Forming Units per Gram (CFU/g), K. pneumoniae + E. gergoviae",[2],<10 CFU/g
same,"Colony Forming Units per Gram (CFU/g), S. aureus","[3]; Challenge #1, 7 Days",<10 CFU/g
same,"Colony Forming Units per Gram (CFU/g), S. aureus","[3]; Challenge #1, 14 Days",<10 CFU/g
same,"Colony Forming Units per Gram (CFU/g), S. aureus","[3]; Challenge #1, 21 Days",<10 CFU/g
same,"Colony Forming Units per Gram (CFU/g), S. aureus","[3]; Challenge #1, 24 Hours",<10 CFU/g
same,"Colony Forming Units per Gram (CFU/g), S. aureus","[3]; Challenge #1, 28 Days",<10 CFU/g
same,"Colony Forming Units per Gram (CFU/g), S. aureus","[3]; Challenge #2, 7 Days",<10 CFU/g
same,"Colony Forming Units per Gram (CFU/g), S. aureus","[3]; Challenge #2, 14 Days",<10 CFU/g
same,"Colony Forming Units per Gram (CFU/g), S. aureus","[3]; Challenge #2, 21 Days",<10 CFU/g
same,"Colony Forming Units per Gram (CFU/g), S. aureus","[3]; Challenge #2, 28 Days",<10 CFU/g
same,"Colony Forming Units per Gram (CFU/g), S. aureus","[3]; Challenge #2, 48 Hours",<10 CFU/g
same,CTFA recommendations for a minimum of 90% mold reduction in 7 days,[4]; [8],did not meet CTFA recommendations
same,Efficacy against the mixed mold challenge,[4]; [8],not sufficiently efficacious
same,"Colony Forming Units per Gram (CFU/g), Mixed Molds","[4]; Challenge #1, 7 Days",3.0 × 10^4 CFU/g
same,"Colony Forming Units per Gram (CFU/g), Mixed Molds","[4]; Challenge #1, 14 Days",8.0 × 10^4 CFU/g
same,"Colony Forming Units per Gram (CFU/g), Mixed Molds","[4]; Challenge #1, 21 Days",1.5 × 10^4 CFU/g
same,"Colony Forming Units per Gram (CFU/g), Mixed Molds","[4]; Challenge #1, 24 Hours",2.1 × 10^5 CFU/g
same,"Colony Forming Units per Gram (CFU/g), Mixed Molds","[4]; Challenge #1, 28 Days",5.1 × 10^3 CFU/g
same,"Colony Forming Units per Gram (CFU/g), Mixed Molds","[4]; Challenge #1, 48 Hours",1.2 × 10^5 CFU/g
same,"Colony Forming Units per Gram (CFU/g), Mixed Molds","[4]; Challenge #2, 7 Days",3.4 × 10^3 CFU/g
same,"Colony Forming Units per Gram (CFU/g), Mixed Molds","[4]; Challenge #2, 14 Days",3.6 × 10^3 CFU/g
same,"Colony Forming Units per Gram (CFU/g), Mixed Molds","[4]; Challenge #2, 21 Days",9.0 × 10^3 CFU/g
same,"Colony Forming Units per Gram (CFU/g), Mixed Molds","[4]; Challenge #2, 28 Days",4.0 × 10^2 CFU/g
same,"Colony Forming Units per Gram (CFU/g), Mixed Molds","[4]; Challenge #2, 48 Hours",3.8 × 10^3 CFU/g
same,"Colony Forming Units per Gram (CFU/g), P. aeruginosa + B. cepacia","[5]; Challenge #1, 7 Days",<10 CFU/g
same,"Colony Forming Units per Gram (CFU/g), P. aeruginosa + B. cepacia","[5]; Challenge #1, 14 Days",<10 CFU/g
same,"Colony Forming Units per Gram (CFU/g), P. aeruginosa + B. cepacia","[5]; Challenge #1, 21 Days",<10 CFU/g
same,"Colony Forming Units per Gram (CFU/g), P. aeruginosa + B. cepacia","[5]; Challenge #1, 24 Hours",<10 CFU/g
same,"Colony Forming Units per Gram (CFU/g), P. aeruginosa + B. cepacia","[5]; Challenge #1, 28 Days",<10 CFU/g
same,"Colony Forming Units per Gram (CFU/g), P. aeruginosa + B. cepacia","[5]; Challenge #2, 7 Days",<10 CFU/g
same,"Colony Forming Units per Gram (CFU/g), P. aeruginosa + B. cepacia","[5]; Challenge #2, 14 Days",<10 CFU/g
same,"Colony Forming Units per Gram (CFU/g), P. aeruginosa + B. cepacia","[5]; Challenge #2, 21 Days",<10 CFU/g
same,"Colony Forming Units per Gram (CFU/g), P. aeruginosa + B. cepacia","[5]; Challenge #2, 28 Days",<10 CFU/g
same,"Colony Forming Units per Gram (CFU/g), C. albicans","[6]; Challenge #1, 7 Days",1.6 × 10^2 CFU/g
same,"Colony Forming Units per Gram (CFU/g), C. albicans","[6]; Challenge #1, 14 Days",<10 CFU/g
same,"Colony Forming Units per Gram (CFU/g), C. albicans","[6]; Challenge #1, 21 Days",<10 CFU/g
same,"Colony Forming Units per Gram (CFU/g), C. albicans","[6]; Challenge #1, 24 Hours",3.1 × 10^4 CFU/g
same,"Colony Forming Units per Gram (CFU/g), C. albicans","[6]; Challenge #1, 28 Days",<10 CFU/g
same,"Colony Forming Units per Gram (CFU/g), C. albicans","[6]; Challenge #2, 7 Days",<10 CFU/g
same,"Colony Forming Units per Gram (CFU/g), C. albicans","[6]; Challenge #2, 14 Days",<10 CFU/g
same,"Colony Forming Units per Gram (CFU/g), C. albicans","[6]; Challenge #2, 21 Days",<10 CFU/g
same,"Colony Forming Units per Gram (CFU/g), C. albicans","[6]; Challenge #2, 28 Days",<10 CFU/g
same,"Colony Forming Units per Gram (CFU/g), C. albicans","[6]; Challenge #2, 48 Hours",<1.0 × 10^2 CFU/g
same,"Colony Forming Units per Gram (CFU/g), P. aeruginosa + B. cepacia",[7],<10 CFU/g
